{"source": "patent US9862713B2", "about": "“Substituted bicyclic heteroaryl compounds as RXR agonists” (CONNEXIOS LIFE SCIENCES PVT. LTD., priority 2014, dated 2018)", "key": {"male Syrian Hamsters": {"test_system": "male Syrian Hamsters", "experiment": "High cholesterol diet induced hyperlipidaemia in hamsters", "assay_type": "in vivo", "details": "10 mg/kg b.wt, 8-12 weeks", "procedure": "Eight to ten week old male Syrian Hamsters were housed in polypropylene cages provided with sterile paddy husk as bedding material. The animals were maintained at temperature 22±3° C., relative humidity 50-70%, 15-18 air cycle changes with 12 h dark and light cycle. The animals were provided with rodent feed (ad libitum) supplied by harlan laboratories to normal control animals and treatment groups were fed with High Cholesterol diet, prepared in-house by mixing 11.5% coconut oil, 11.5% corn oil, 0.5% cholesterol, and 0.25% deoxycholate in chow diet. Bisleri water (ad libitum) was provided. The animals were randomized based on body weight and divided into control and treatment groups. Compound 40 was administered, at a dose of 10 mg/kg b.wt, for a period of 8-12 weeks to the treatment group. Daily feed consumption, weekly body weight, total cholesterol and triglyceride levels were estimated."}, "MIA PaCa-2 cells [1]": {"test_system": "MIA PaCa-2 cells", "experiment": "BrdU incorporation assay in MIA PaCa-2 cells", "assay_type": "cell-based", "details": "3 uM", "procedure": "Impact of compound-40 on cell proliferation was further evaluated by BrdU incorporation assay. MIA PaCa-2 cells were grown for 4 days in presence or absence of compound-40 (3 uM). After treatment with vehicle control or compound-40 (3 uM), cells were exposed to BrdU. BrdU incorporation was measured using a commercially available kit (Roche) as per manufacturer's protocol."}, "db/db mice": {"test_system": "db/db mice", "experiment": "Effect of RXR agonist on db/db mice", "assay_type": "in vivo", "details": "2.5, 5, 10 and 15 mg/kg, BID, po", "procedure": "The male db/db and lean mice were procured from Jackson Laboratory, US laboratories, acclimatized for a week, were fed a standard laboratory diet. The lean control and the db/db mice were 8 weeks old at the start of the study and were randomized to either vehicle or drug (Compound 40, 2.5, 5, 10 and 15 mg/kg, BID, po) treatment groups by body weight, fed glucose and glucose AUC during an oral glucose tolerance test. The treatment was continued for 8 weeks. Body weight, fasting and fed glucose and fast triglycerides (tail snip) were monitored weekly. At the end of week 8 of the treatment, glucose and insulin HbAlc levels were followed at different time intervals. Blood samples collected from tail nipping method were subjected at the end of week 7 of treatment period measured for HbAlc levels by DCA vantage (SIEMENS).\nAssessment of 24 h glucose profile: Fed state blood samples were collected by tail nipping method and measured for glucose levels at every 2 h time intervals up to 8 h and then followed by 4 h intervals at the end of week 7 of treatment."}, "[2]": {"test_system": "HL-60 promyelocytic leukemia cell line", "experiment": "HL-60 differentiation (NBT reduction)", "assay_type": "cell-based", "details": "72 h culture", "procedure": "Progression of promyelocytic leukemia can be abrogated by their differentiation. […] In order to estimate the differentiating ability of compound-40, HL-60 promyelocytic leukemia cell line was used as an in vitro model of the disease. HL-60 cells were cultured for 72 h as either control or under treatment as mentioned. After 72 h of culture, cells were exposed to nitro blue tetrazolium (NBT) solution containing phorbol myristate acetate (PMA) for 1 h at 37° C. Differentiated cells have increased oxidative burst potential which reduces NBT. Levels of reduced NBT were measured at 540 nm absorption."}, "DIO mice": {"test_system": "DIO mice", "experiment": "Compound 40 with exercise on metabolic profile in DIO mice; exercise endurance (tread mill) test", "assay_type": "in vivo, male C57BL/6J mice", "procedure": "Exercise endurance test or tread mill test (TMT): Exercise endurance test was accomplished on a motor treadmill at a low to moderate intensity of 5-20 cm/sec as maximal running speed with an intensity of 0.2 mA shock and one degree of inclination. The animals were subjected for TMT till exhaustion and different observations like distance traveled (cm), time spent on shock zone (sec), number of shocks, total time (min) were measured for all the mice in different groups.\nSix week old male C57BL/6J mice were selected, acclimatized for a period of 1 week, Animals were assigned to either chow (10% kcal from fat) or high fat diet (HFD) (D12492; 60% kcal from fat), Research Diets, Inc., New Jersey, USA. After 11 weeks of the diet intervention, the HFD fed animals were assigned to specific treatment groups based upon body weight, glucose AUC during OGTT, fasting and fed blood glucose and fasting TG. The lean control mice (n=10) were fed with normal chow diet while the treatment group (n=10) and HFD Control (n=10), with and without exercise training, with high fat diet throughout the experimental period. Treatment group received Compound 40 with and without exercise training, at a dose of 10 mg/kg b.wt, once daily, po as suspension in 1% MC (methyl cellulose) as vehicle. Lean control and HFD controls animals were administered with vehicle. Exercise training was accomplished on a motor treadmill at a low to moderate intensity of 5-20 cm/sec as maximal running speed with an intensity of 0.2 mA shock and one degree of inclination. The animals were adapted to this procedure 5 days a week and different observations like distance traveled (cm), time spent on shock zone (sec), number of shocks, total time (min) will be measured for all the mice in different groups. Weekly body weight & daily feed consumption was recorded. The blood collected from tail vein was subjected for estimation of glucose and TG. OGTT was performed in 6 h fasted mice with 2 g/kg, of oral glucose challenge after 4 and 8 weeks of treatment. Then animals were euthanized and necropsied, the liver was excised immediately, weighed and taken to estimate liver triglyceride (TG). Different adipose depots were separated and weighed."}, "[3]": {"test_system": "MCF7 breast cancer cell line", "experiment": "MCF7 breast cancer cell line: growth, BrdU incorporation, ROS, DNA fragmentation", "assay_type": "cell-based"}, "MIA PaCa-2 cells [4]": {"test_system": "MIA PaCa-2 cells", "experiment": "Caspase-3 activity (Ac-DEVD-R110 cleavage) in MIA PaCa-2 cells", "assay_type": "cell-based", "procedure": "Caspase-3 activity was measured using its ability to cleave its substrate (Ac-DEVD-R110). Increased Caspase-3 activity would lead to higher release of fluorescent R110 which was measured at 485 nm excitation and 530 nm emission. Activity of caspase-3 (as nano-moles of R110 released) was normalized to total cellular protein. […] Cell death was measured by increased levels of DNA fragments as per manufacturer's protocol (Roche) and was normalized to total cellular DNA. Data are represented as % of control."}}}
{"smiles": "CC1(C)CCC(C)(C)c2sc(N(CC3CC3)c3ccc(C(=O)O)cn3)nc21", "note": "[Compound 40, 6-[(Cyclopropylmethyl) (4,4,7,7-tetramethyl-4,5,6,7-tetrahydro-1,3-benzothiazol-2-yl)amino]pyridine-3-carboxylic acid]", "values": [{"measurement": "LDL-c", "setting": "male Syrian Hamsters", "value": "significant reduction"}, {"measurement": "Non-HDL cholesterol", "setting": "male Syrian Hamsters", "value": "significant reduction"}, {"measurement": "total cholesterol", "setting": "male Syrian Hamsters", "value": "significant reduction"}, {"measurement": "BrdU incorporation", "setting": "MIA PaCa-2 cells [1]; 4 days", "value": "significantly reduced"}, {"measurement": "BrdU incorporation in RXRa over-expressing MIA PaCa-2", "setting": "MIA PaCa-2 cells [1]; RXRa over-expressing cells", "value": "further reduced the BrdU incorporation"}, {"measurement": "post-prandial blood glucose levels", "setting": "db/db mice; 8 weeks", "value": "significantly reduced post-prandial blood glucose levels"}, {"measurement": "HbAlc levels", "setting": "db/db mice; end of week 7", "value": "steep and dose dependent reduction"}, {"measurement": "glucose excursion during the prandial phase (24 h glucose profile)", "setting": "db/db mice; end of week 7", "value": "significantly reduced glucose excursion"}, {"measurement": "HL-60 cells differentiation", "setting": "[2]; NBT reduction at 540 nm", "value": "significantly increased"}, {"measurement": "HL-60 differentiation in combination with ATRA", "setting": "[2]; together with ATRA", "value": "additive effect with ATRA"}, {"measurement": "Body weight", "setting": "DIO mice; 10 mg/kg b.wt, once daily, po", "value": "improvement was also observed"}, {"measurement": "OGTT levels", "setting": "DIO mice; 10 mg/kg b.wt, once daily, po", "value": "significant improvement"}, {"measurement": "fasting TG levels", "setting": "DIO mice; 10 mg/kg b.wt, once daily, po", "value": "improvement was also observed"}, {"measurement": "fasting glucose", "setting": "DIO mice; 10 mg/kg b.wt, once daily, po", "value": "significant improvement"}, {"measurement": "muscle endurance", "setting": "DIO mice; DIO mice, tread mill test", "value": "significantly improves muscle endurance"}, {"measurement": "BrdU incorporation", "setting": "[3]; MCF7", "value": "significantly reduced"}, {"measurement": "apoptosis (DNA fragmentation)", "setting": "[3]; MCF7", "value": "increased levels of apoptosis"}, {"measurement": "cellular stress (ROS levels)", "setting": "[3]; MCF7", "value": "significant increase in cellular stress"}, {"measurement": "cell growth", "setting": "[3]; MCF7, 3 uM", "value": "reduced cell growth"}, {"measurement": "Caspase-3 activity", "setting": "MIA PaCa-2 cells [4]", "value": "significantly increased"}]}
